Experimental findings from the SangsterLogP compilation are described below.

One series can be described thus: method code SF-AS, from DOI: 10.1021/jm00197a006, PMID: 533877.
Conditions: not given
Turning to `Cc1nnc(/C=N/O)s1`, the logP stood at 0.78. `O/N=C/c1cnns1` displayed a logP of 0.86. On the same count and under the same terms, under `Cc1nsc(C=NO)n1` stands 1.29.

The next series in a line: method code SF-GLC, from DOI: 10.1016/0166-445x(88)90052-5.
Conditions: not given
Regarding `OCC1CO1` (stereo not drawn), the logP is -0.95. Take `BrCC1CO1` (stereo not drawn): the logP was 0.85.

`ClCC1CO1` (stereo not drawn) registered a logP of 0.45.

Test in a further series: not given
Conditions: not given
For `CC(C=CC1=C(C)C=CCC1(C)C)=CC=CC(C)=CCO`, the logP is 7.41. `CC(C)(CO)[C@@H](O)C(=O)NCCC(=O)O` yielded a logP of -1.69. In the case of `O=C(O)CCCC[C@@H]1SC[C@@H]2NC(=O)N[C@@H]21`, the logP is 0.39.

The nature of another series: method code SF-HPLC, from DOI: 10.1002/jlac.1995199512305.
Conditions: not given
`Cc1cn(C2CC(N=[N+]=[N-])C(COP(=O)(OCC3OC(n4cc(C)c(=O)[nH]c4=O)CC3N=[N+]=[N-])C(O)c3ccc([N+](=O)[O-])cc3[N+](=O)[O-])O2)c(=O)[nH]c1=O` (stereo not drawn) gave a logP of 0.94.

Compound `COc1ccc(C(O)P(=O)(OCC2OC(n3cc(C)c(=O)[nH]c3=O)CC2N=[N+]=[N-])OCC2OC(n3cc(C)c(=O)[nH]c3=O)CC2N=[N+]=[N-])cc1` (stereo not drawn) displayed a logP of 0.72.

For the compound `Cc1cn(C2CC(N=[N+]=[N-])C(COP(=O)(OCC3OC(n4cc(C)c(=O)[nH]c4=O)CC3N=[N+]=[N-])C(O)c3ccc([N+](=O)[O-])cc3)O2)c(=O)[nH]c1=O` (stereo not drawn), the logP turned out to be 0.83. `Cc1cn(C2CC(N=[N+]=[N-])C(COP(=O)(OCC3OC(n4cc(C)c(=O)[nH]c4=O)CC3N=[N+]=[N-])C(O)c3ccc(Cl)cc3)O2)c(=O)[nH]c1=O` (stereo not drawn): the logP was 1.45.

The next series can be described thus: method code SF-AS, from DOI: 10.1211/0022357001777513, PMID: 11186244. The settings on record: pH 7.3.
The compound `OCC(O)COc1c(F)cc(-c2c3nc(c(-c4cc(F)c(OCC(O)CO)c(F)c4)c4ccc([nH]4)c(-c4cc(F)c(OCC(O)CO)c(F)c4)c4nc(c(-c5cc(F)c(OCC(O)CO)c(F)c5)c5ccc2[nH]5)C=C4)C=C3)cc1F` (stereo not drawn) had a log distribution coefficient (logD) of 2.61. Regarding `OCC(O)COc1cccc(-c2c3nc(c(-c4cccc(OCC(O)CO)c4F)c4ccc([nH]4)c(-c4cccc(OCC(O)CO)c4F)c4nc(c(-c5cccc(OCC(O)CO)c5F)c5ccc2[nH]5)C=C4)C=C3)c1F` (stereo not drawn), the pH-dependent lipophilicity (logD) came out at 2.65. On to `OCC(O)COc1cccc(-c2c3nc(c(-c4cccc(OCC(O)CO)c4)c4ccc([nH]4)c(-c4cccc(OCC(O)CO)c4)c4nc(c(-c5cccc(OCC(O)CO)c5)c5ccc2[nH]5)C=C4)C=C3)c1` (stereo not drawn), for which the log distribution coefficient (logD) was 4.83. `Oc1ccc(-c2c3nc(c(-c4ccc(O)cc4)c4ccc([nH]4)c(-c4ccc(O)cc4)c4nc(c(-c5ccc(O)cc5)c5ccc2[nH]5)C=C4)C=C3)cc1` displayed a logD of 4.77.

The nature of another series: method code SF-GLC, from DOI: 10.1016/s0045-6535(02)00841-x, PMID: 12615110.
Conditions: not given
`Brc1ccc(Oc2c(Br)cc(Br)cc2Br)c(Br)c1` came in with a logP of 7.24. On the same count and under the same terms, the figure for `Brc1cc(Br)c(Oc2cc(Br)c(Br)cc2Br)c(Br)c1` is 7.82.

The compound `Brc1ccc(Oc2ccc(Br)cc2Br)c(Br)c1` registered a logP of 6.81.

Test in another series: not given
Conditions: not given
This is another data set of the same source.
The compound `CC(Cl)CCl` (stereo not drawn) registered a logP of 1.98.

Consider `ClCCCl`, for which the logP worked out at 1.55. In turn, `ClC=C(Cl)Cl` came in with a logP of 2.67.

Test in another series: not given
Conditions: not given
The source holds these as a separate data set.
`C=CCOCCO` had a logP of -0.1. On the same count and under the same terms, the figure for `CC(C)COCCO` is 0.75; for `COCCO` it is -0.61.

Test in the next series: not given
Conditions: not given
The source holds these as a separate data set.
With `CC(=O)C1(O)Cc2c(O)c3c(c(O)c2C(OC2CC(N)C(O)C(C)O2)C1)C(=O)c1ccccc1C3=O` (stereo not drawn), the logP stood at 0.68. `COc1cccc2c1C(=O)c1c(O)c3c(c(O)c1C2=O)C[C@@](O)(C(=O)CO)C[C@@H]3O[C@H]1C[C@H](N)C[C@H](C)O1`: the logP turned out to be 0.01. In turn, `COC1C(N)CC(OC2CC(O)(C(=O)CO)Cc3c(O)c4c(c(O)c32)C(=O)c2ccccc2C4=O)OC1C` (stereo not drawn) gave a logP of 0.39.

Another series is described as follows: method code SF, from Kruglik, P.; Leschev, M.; Rakhman'ko, M.; Bubel, N.; Asratyan, V. (1991). Extraction of 1,2,4-triazole and its derivatives by organic solvents. 64(8)1721-1724.
Conditions: not given
`CCCn1cnc([N+](=O)[O-])n1` gave a logP of 0.22. `O=[N+]([O-])c1nc[nH]n1`: the logP is -0.41. The same measure, in the same setting: under `Cn1cnc([N+](=O)[O-])n1` stands -0.45.

A short description of the next series: method code SF-RC, from DOI: 10.1021/es60170a013.
Conditions: not given
In the case of `ClC(Cl)Cl`, the logP came to 1.9. Same read-out and setting: under `Oc1ccc(Cl)c(O)c1` stands 1.8. Compound `ClC(Cl)C(Cl)Cl` had a logP of 2.39.

The nature of a further series: method code SF, from DOI: 10.1080/09553008714551831, PMID: 3497891. To be noted: pH 7.4.
The compound `COCC(O)Cn1ncc([N+](=O)[O-])n1` (stereo not drawn) gave a logD of -0.1. `COCC(O)Cn1cnc([N+](=O)[O-])n1` (stereo not drawn) yielded a logD of -0.47. In the case of `Nc1ncc([N+](=O)[O-])s1`, the logD is 0.89.
